Consider 1 molecule from patent US20130323231A1, “TREATMENT AND PROGNOSIS OF SOLID TUMOUR CANCERS” (ROYAL COLLEGE OF SURGEONS IN IRELAND, priority 2011, published 2013).

Test [1] concerns HCT116 cells. Nature of the test: Calculated oxaliplatin IC50 in parental HCT116 cells. Particulars: read-out: calculated IC50.
Test [2] has as its system oxaliplatin resistance HCT116 cells. In words: Calculated oxaliplatin IC50 in oxaliplatin resistant HCT116 cells. The conditions noted are these: read-out: calculated IC50; HCT116 cells rendered oxaliplatin resistant by stepwise increasing oxaliplatin over 16 passages.

As for `O=C1[O][Pt]2([NH][C@@H]3CCCC[C@H]3[NH]2)[O]C1=O` [oxaliplatin], the IC50 was 0.35 µM in test [1] and 5 µM in test [2].
